{"source": "patent US10286038B2", "about": "“Lysosome membrane protein 2 (LIMP-2) based peptides and related uses” (Northwestern University, priority 2016, dated 2019)", "key": {"[1]": {"target": "T1, recombinant GC (Cerezyme) (Homo sapiens, UniProt P04062, R534H)", "T1 construct": "purchased Genzyme Therapeutics, Boston, USA", "T1 sequence (P04062 40-536 R534H)": "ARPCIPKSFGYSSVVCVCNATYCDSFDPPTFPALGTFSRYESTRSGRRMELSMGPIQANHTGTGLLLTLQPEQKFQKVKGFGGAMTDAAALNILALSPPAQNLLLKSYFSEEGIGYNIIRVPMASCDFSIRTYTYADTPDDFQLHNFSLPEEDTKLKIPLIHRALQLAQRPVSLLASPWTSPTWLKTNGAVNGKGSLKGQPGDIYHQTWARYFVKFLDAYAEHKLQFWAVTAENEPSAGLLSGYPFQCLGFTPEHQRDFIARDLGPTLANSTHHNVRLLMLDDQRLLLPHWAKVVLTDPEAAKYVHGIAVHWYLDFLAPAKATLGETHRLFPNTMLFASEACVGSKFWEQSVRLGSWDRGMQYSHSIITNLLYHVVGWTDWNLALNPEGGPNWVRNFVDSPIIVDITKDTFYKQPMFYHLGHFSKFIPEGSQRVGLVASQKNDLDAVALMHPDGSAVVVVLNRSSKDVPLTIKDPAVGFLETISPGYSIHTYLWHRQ", "experiment": "peptide pulldown of recombinant GC", "assay_type": "binding", "details": "biotinylated peptide, tenfold molar amount, neutral pH, streptavidin beads", "experimental": "Expression plasmids of LIMP-2 and human GC constructs were generated as described previously (1). For Western blotting nitrocellulose or PVDF membranes were used. EndoH/PNGaseF digests were performed according to manufacturer's instructions (New England Biolabs, Ipswich, USA). For co-immunoprecipitation experiments magnetic agarose G beads (Thermo Fisher Scientific, Waltham, USA) were utilized. Immunofluorescence studies were performed in cells as previously described (1, 3). Cellular co-localization of two proteins was determined by the Pearson's Index (35). Enzyme activity assays of cell lysates or recombinant protein were measured at acid pH using absorbent and fluorescent artificial substrates. For peptide studies, peptides were N-terminally tagged with biotin. If not stated otherwise, recombinant enzyme was incubated with a tenfold higher molarity of peptides. Conditions for pulldown experiments were kept at neutral pH. Protein modelling, molecular analyses, graphics and animations were performed with the UCSF Chimera package.\nAll peptides were purchased from jpt Peptide Technologies (Berlin, GER). […] The concentration of the peptides as well as the recombinant proteins was determined spectroscopically (Nanodrop 2000c; Thermo Fisher Scientific, Waltham, USA). […]"}, "[2]": {"target": "bovine serum albumin (BSA) (Bos taurus, UniProt P02769)", "sequence (P02769 25-607)": "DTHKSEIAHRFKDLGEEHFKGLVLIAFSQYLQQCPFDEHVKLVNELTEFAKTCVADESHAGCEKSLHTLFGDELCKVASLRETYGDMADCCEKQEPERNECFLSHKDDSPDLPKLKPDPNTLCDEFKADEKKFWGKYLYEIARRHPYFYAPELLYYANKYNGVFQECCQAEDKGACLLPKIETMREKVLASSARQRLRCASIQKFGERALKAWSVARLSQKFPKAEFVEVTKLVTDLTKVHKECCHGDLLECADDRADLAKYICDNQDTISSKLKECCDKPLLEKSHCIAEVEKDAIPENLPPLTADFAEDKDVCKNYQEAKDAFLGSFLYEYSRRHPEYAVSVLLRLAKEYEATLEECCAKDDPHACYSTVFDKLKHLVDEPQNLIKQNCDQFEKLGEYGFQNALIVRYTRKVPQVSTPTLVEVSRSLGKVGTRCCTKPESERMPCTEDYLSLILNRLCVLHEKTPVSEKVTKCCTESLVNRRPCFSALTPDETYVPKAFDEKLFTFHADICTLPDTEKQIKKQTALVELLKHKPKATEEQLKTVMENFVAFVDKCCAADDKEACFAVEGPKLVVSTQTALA", "experiment": "peptide pulldown of albumin (BSA)", "assay_type": "binding", "details": "neutral pH", "experimental": "FIG. 6: Characterization of a helical LIMP-2-derived peptide. […] B) In vitro peptide pulldown assay: helix 5 peptides were incubated with recombinant LAMAN and bovine serum albumin (BSA). INPUT and BOUND fractions were loaded onto SDS-PAGE and proteins visualized by coomassie staining (CBB). C) Densitometry of LAMAN and BSA protein bound to peptide, normalized to protein fraction bound to beads only (buffer; n=2-3). D) and E) Activity assay of recombinant (D) GC and (E) LAMAN incubated with different excess molarities (1×-10×) of helix 5 peptide (n=β-5) and LIMP-2 ectodomain (n=4). GC activities were normalized and statistical analyses compared to 0 input of BSA/helix 5 peptide. F) Peptide-pulldown of GC constructs overexpressed in N2a cells with subsequent Western blot analysis (α-hGC) utilizing helix 5 and the 3×D control peptide as a negative binding control. G) Densitometry of GC protein bound to peptides; each construct is normalized to buffer only. H) Live-cell lysosomal GC activity of H4 cells after uptake of helix 5 and 3×D TAT peptides. GC activity was measures every 30 minutes up to 3.5 hours. Cells were treated with DMSO or the “lysosomal inhibitor” bafilomycinA1. […] Lysosomal activity is calculated by subtracting the AUC of DMSO with the AUC of bafilomycinA1 treated samples (n=4). […] GC activity was measured from 16-74 hours and is shown in mU/mg (n=3). […]"}, "recombinant GC": {"target": "T2, recombinant GC (Homo sapiens, UniProt P04062, R534H)", "T2 construct": "purchased Genzyme Therapeutics, Boston, USA", "T2 sequence (P04062 40-536 R534H)": "T1 sequence (P04062 40-536 R534H)", "experiment": "stabilization assay of recombinant GC at 37° C.", "assay_type": "biochemical", "details": "recombinant GC incubated with peptide at 37° C.", "experimental": "Proteins were visualized by coomassie staining (CBB). […] See also FIG. 6.\nTo address the functional impact of the observed interaction between the helix 5 peptide and recombinant GC, we measured GC activity in the presence of a one- to tenfold molar excess of the helix 5 peptide. […] No effect on enzymatic activity after incubation with the helix 5 peptide or the LIMP-2 ectodomain could be found for recombinant α-mannosidase (LAMAN) further emphasizing the specificity of the helix 5 peptide on GC activity (FIG. 6E). […] To analyze if the increase in GC activity is due to stabilization of the enzyme, recombinant GC was incubated with the helix 5 and the control peptide at 37° C. and the activity of GC was measured at regular intervals (FIG. 3F)."}, "[3]": {"tested_on": "endogenous GC in Cos 7 cells", "details": "biotinylated peptide, neutral pH", "method": "For pulldown of endogenous and overexpressed GC from N2a cell lysates 20 nmol of LIMP-2-derived peptide (Helix 5 and 3×D) was incubated with 50 μl cell lysate at 4° C. overnight. The cells were harvested in EBC-buffer (Table 3). After blocking and equilibration of the streptavidin beads (see above) the cell lysate/peptide mixtures were added to the beads for 30 min. at room temperature. The supernatant was removed. After extensive washing of the beads with NaPhosphate buffer, the bound peptides and proteins were released from the beads by incubation with Laemmli buffer (see above). After centrifugation for 2 min. at 17,000×g the supernatant was removed (BOUND fraction) and subjected to SDS-Page and Western-blotting. An antibody against human GC (α-hGC, for details see Table 4) was used for detection."}}, "data": [{"substance": "Biotin-Ttds-LREIIEAMLKAYQQKLFVTHTVDE [helix 5 peptide]", "values": [{"measurement": "co-precipitation of recombinant GC", "setting": "[1]", "value": "specifically co-precipitated"}, {"measurement": "interaction with albumin (BSA)", "setting": "[2]", "value": "no interaction"}, {"measurement": "GC enzymatic activity remaining at 72 hours", "setting": "recombinant GC", "value": "still displayed significant enzymatic activity"}, {"measurement": "co-precipitation of endogenous GC from cellular lysates", "setting": "[3]", "value": "specifically co-precipitated"}]}]}
